Test systems include U251 CNS; MOLT-4 leukemia; MCF7 breast; HS 578T breast; NCI-H226 lung; A549 NSCLC; M14 melanoma; DU-145 prostate.
Test in all cases: DTP human tumour cell line panel, 48 h

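Test compounds were applied to cells in 96-well plates for 48 hours at 5 doses. At the GI50, growth is halved. TGI: total growth inhibition.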 Where a SMILES comes first, the peptide text is derived from it. The star is where a group is joined. Boc = CC(C)(C)OC(=O)*

The term TGI denotes the concentration at which net growth stops. On to `N#CC(c1ccccc1)c1cccc2ccccc12` (configuration not stated), for which the TGI in the assay on U251 CNS was > 100 µM; in the assay with MOLT-4 leukemia, 57.6 µM; in the assay with MCF7 breast, 92.4 µM; in the assay on HS 578T breast, > 100 µM; in the assay on NCI-H226 lung, > 100 µM; with A549 NSCLC, 65.1 µM. The TGI in the assay with M14 melanoma is 96.4 µM; with DU-145 prostate, > 100 µM.

With `CN(C)Cc1cc(N=Nc2ccc(Cl)c(Cl)c2)ccc1O`, the TGI with U251 CNS was 23.6 µM; with MOLT-4 leukemia, 24.4 µM; in the assay on MCF7 breast, 18.1 µM; with HS 578T breast it was 21.9 µM; in the assay with NCI-H226 lung it was 40.7 µM; in the assay with A549 NSCLC, 27.5 µM. Moreover, the concentration for total growth inhibition (TGI) with M14 melanoma was 31.9 µM; with DU-145 prostate, 17.6 µM.

As to `Cc1nc2c(Br)cc(Br)cc2c(=O)n1-c1ccccc1N`, the TGI in the assay on MOLT-4 leukemia was > 100 µM; with MCF7 breast, > 100 µM; in the assay on HS 578T breast, > 100 µM; in the assay with NCI-H226 lung, 99.6 µM; in the assay with A549 NSCLC, > 100 µM; in the assay with M14 melanoma it was > 100 µM. Further, the TGI in the assay with DU-145 prostate is > 100 µM.

On to `O=C1CC(O)c2c(Cl)sc(Cl)c21` (configuration not stated), for which the TGI was 20.2 µM in the assay with U251 CNS; > 20.9 µM in the assay on MOLT-4 leukemia; 30.5 µM in the assay with MCF7 breast; 36.6 µM in the assay with NCI-H226 lung; 36.2 µM in the assay with A549 NSCLC; 32.7 µM in the assay on M14 melanoma. Further, the TGI in the assay on DU-145 prostate worked out at 54.8 µM.

Regarding `C=C(Br)CN(C#N)CC(=C)Br`, the total growth inhibition concentration (TGI) in the assay on U251 CNS, in the assay with MOLT-4 leukemia, in the assay on MCF7 breast, in the assay with HS 578T breast, in the assay with NCI-H226 lung and in the assay with A549 NSCLC was > 100 µM throughout. The TGI in the assay on M14 melanoma and in the assay with DU-145 prostate was > 100 µM throughout.

On to `Cc1nnc2c3c(-c4ccccc4)c(-c4ccccc4)oc3nc(N(C)C)n12`, for which the total growth inhibition concentration (TGI) in the assay with U251 CNS, with MOLT-4 leukemia, in the assay on MCF7 breast, in the assay with HS 578T breast, in the assay with NCI-H226 lung and in the assay on A549 NSCLC was > 100 µM each time. The TGI with M14 melanoma and in the assay with DU-145 prostate was > 100 µM in each case.

In the case of `CN(C)c1ccc(/C=C2\N=C(c3ccccc3)N(c3nc4c(Cl)cc(Cl)cc4s3)C2=O)cc1`, the TGI with U251 CNS, in the assay with MOLT-4 leukemia, with MCF7 breast, in the assay with HS 578T breast, in the assay with A549 NSCLC and in the assay on M14 melanoma was > 100 µM in each case. Moreover, the concentration for total growth inhibition (TGI) in the assay on DU-145 prostate was > 100 µM.

For `COC(=O)C(Cc1ccccc1)NC(=O)CNC(=O)CSc1nnc(COc2ccc(Cl)cc2)n1-c1ccccc1` (configuration not stated), the concentration for total growth inhibition (TGI) in the assay with U251 CNS was 32.8 µM; in the assay on MOLT-4 leukemia it was > 24.2 µM; in the assay on MCF7 breast it was 35.5 µM; in the assay on HS 578T breast it was 70.4 µM; in the assay on NCI-H226 lung, 36.5 µM; in the assay on A549 NSCLC, 34.5 µM. The TGI is 31.7 µM with M14 melanoma and 33 µM in the assay with DU-145 prostate.

Consider `COc1ccc2c(c1)CC[C@@H]1[C@@H]2CC[C@]2(C)/C(=N/OCCN3CCCCC3)CC[C@@H]12`, for which the concentration for total growth inhibition (TGI) in the assay with U251 CNS was 24.3 µM; with MOLT-4 leukemia it was 8.37 µM; in the assay on MCF7 breast it was 21.8 µM; in the assay on HS 578T breast it was 26.6 µM; in the assay with NCI-H226 lung it was 18.7 µM; in the assay on A549 NSCLC, 19.8 µM. In addition, the figures for the TGI in the assay on M14 melanoma and with DU-145 prostate were 5.88 µM and 14.7 µM, respectively.

For the molecule `COc1cc(C2c3cc4c(cc3OC(N3CCOCC3)C2C)OCO4)cc(OC)c1O` (configuration not stated), the TGI with U251 CNS was > 53.6 µM; with MOLT-4 leukemia, > 100 µM; with MCF7 breast it was > 100 µM; in the assay with HS 578T breast, 25.6 µM; in the assay on NCI-H226 lung, > 66.3 µM; with A549 NSCLC, > 59.9 µM. Also, the TGI with M14 melanoma and in the assay with DU-145 prostate was > 100 µM in each case.

For the molecule `CC(=O)Oc1ccc2c(c1)CC[C@@H]1C2[C@@H](O[N+](=O)[O-])C[C@@]2(C)C1CC[C@@H]2O` (some centres not stated), the TGI in the assay on U251 CNS is > 100 µM; in the assay with MOLT-4 leukemia it was > 85.8 µM; in the assay with MCF7 breast, > 90.3 µM; with HS 578T breast, 51.1 µM; in the assay with NCI-H226 lung, > 100 µM; in the assay with A549 NSCLC, > 100 µM. The results for the TGI in the assay with M14 melanoma and in the assay on DU-145 prostate were > 100 µM and > 87.2 µM, respectively.

Consider `COc1cccc(-c2cc(=O)c3cc(C)cnc3[nH]2)c1`, for which the TGI in the assay on U251 CNS is > 100 µM; in the assay with MOLT-4 leukemia, > 32.4 µM; in the assay with MCF7 breast it was > 100 µM; with HS 578T breast, > 100 µM; in the assay with NCI-H226 lung it was 0.339 µM; in the assay with M14 melanoma, > 69.6 µM. In the assay on DU-145 prostate, the concentration for total growth inhibition (TGI) was > 100 µM.

As to `CCOC(=O)/C=C(/C(=O)OCC)n1cc(C)c(=O)n(Cc2cnnn2CCCCOC(C)=O)c1=O`, the total growth inhibition concentration (TGI) was > 100 µM in the assay with U251 CNS; 47.9 µM with MOLT-4 leukemia; 32.5 µM in the assay on MCF7 breast; > 100 µM in the assay on HS 578T breast; > 100 µM in the assay with NCI-H226 lung; > 100 µM with A549 NSCLC. The TGI in the assay on DU-145 prostate is > 100 µM.

Regarding `O=[N+]([O-])C(=C(NCc1ccccc1)NCc1ccccc1)C(Cl)=C(Cl)Cl`, the TGI was 52 µM in the assay with MOLT-4 leukemia; > 100 µM in the assay with MCF7 breast; > 100 µM in the assay on HS 578T breast; 90.7 µM in the assay with NCI-H226 lung; > 100 µM in the assay with A549 NSCLC; 75.8 µM in the assay on M14 melanoma. In addition, the total growth inhibition concentration (TGI) in the assay on DU-145 prostate is > 100 µM.

Regarding `Brc1ccc2c(c1)C1=C(CO2)Cc2ccccc2O1`, the TGI worked out at 36.3 µM in the assay on U251 CNS; 66.1 µM in the assay on MOLT-4 leukemia; 40.1 µM in the assay with NCI-H226 lung; 48 µM in the assay on A549 NSCLC; 35 µM in the assay on M14 melanoma; 38.6 µM with DU-145 prostate.

As for `CC(NC(=O)C(NC(=O)OC(C)(C)C)C(C)C)C(=O)NCC(=O)O` (stereo not drawn) (Boc-Val-Ala-Gly-OH; configuration not given here), the TGI with U251 CNS, with MOLT-4 leukemia, with HS 578T breast, in the assay on A549 NSCLC, in the assay with M14 melanoma and in the assay with DU-145 prostate was > 100 µM throughout.

In general, GI50 refers to the concentration at which growth is held to half of that of the control. With `NCCCCCCNc1cc(-c2cccc(OC(F)(F)F)c2)nc2ccc(N3CCCC3)cc12`, in the assay on MOLT-4 leukemia, the GI50 is 1.6 µM and the total growth inhibition concentration (TGI) was 3.59 µM. Besides, in the assay on DU-145 prostate, the GI50 was 1.55 µM and the concentration for total growth inhibition (TGI) is 2.94 µM.

Source of the values: PubChem BioAssay (NCI).
